Earlier results as cited in US20200046831A1, “NANOEMULSION COMPRISING IMIDAZOQUINOLINE-BASED MATERIAL AND USE THEREOF” (DANDI BIOSCIENCE INC., priority 2017, published 2020).

CC(C)Cn1cnc2c(N)nc3ccccc3c21 [imiqimod (R837), imiquimod]
solubility in organic solvents: not dissolved in most organic solvents except for DMSO
